Experimental data as given in US20210038607A1, “OXADIAZOLYLTHIOPHENE DERIVATIVES USEFUL AS HISTONE DEACETYLASE INHIBITORS” (Karus Therapeutics Limited, priority 2018, published 2021).

Tests used:
Human HDAC4 = biological target: T1, Human HDAC4 (Homo sapiens, UniProt P56524); test: HDAC4 biochemical assay, class IIa-specific substrate; details: read-out: HDAC Isoform IC50 (nM) 4
T1 construct: amino acids 627-1085 with N-terminal GST tag; GST (N); host or cells: baculovirus expression system
Outline: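 Two-step fluorogenic read-out: deacetylated BOC-Lys(trifluoroacetyl)-AMC (50 μM) was digested by developer and measured at Ex/Em 360/460. Deacetylation by 0.004 ng/ul HDAC4 (aa 627-1085, N-terminal GST) ran 30 min at room temperature, pH 8.0 Tris buffer, 1 mg/mL BSA, 1% DMSO.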

Human HDAC7 = biological target: T2, Human HDAC7 (Homo sapiens, UniProt Q8WUI4); test: HDAC7 biochemical assay, class IIa-specific substrate; details: read-out: HDAC Isoform IC50 (nM) 7
T2 construct: (a.a. 518-end) with N-terminal GST tag; GST (N); host or cells: baculovirus expression system
T2 sequence (Q8WUI4 518-952 limits assumed): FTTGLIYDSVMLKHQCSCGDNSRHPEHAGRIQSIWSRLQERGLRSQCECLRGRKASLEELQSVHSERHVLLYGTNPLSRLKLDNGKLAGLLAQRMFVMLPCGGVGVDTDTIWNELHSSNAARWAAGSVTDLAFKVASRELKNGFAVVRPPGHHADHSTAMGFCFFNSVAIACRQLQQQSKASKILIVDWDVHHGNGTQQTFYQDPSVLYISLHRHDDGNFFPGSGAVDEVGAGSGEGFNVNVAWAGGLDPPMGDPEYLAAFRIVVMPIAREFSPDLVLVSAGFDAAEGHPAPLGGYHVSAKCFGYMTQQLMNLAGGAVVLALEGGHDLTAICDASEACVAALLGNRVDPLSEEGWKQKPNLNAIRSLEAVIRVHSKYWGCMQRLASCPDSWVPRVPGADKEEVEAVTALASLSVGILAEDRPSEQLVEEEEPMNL
Outline: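 Two-step fluorogenic readout: class IIa-selective trifluoroacetyl-lysine AMC substrate (50 μM) deacetylated by N-terminal GST-HDAC7 fragment (0.001 ng/ul), then digested by developer, Ex/Em 360/460. Reaction: 30 min, room temperature, Tris-HCl pH 8.0, NaCl/KCl/MgCl2, 1 mg/mL BSA, 1% DMSO.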

Human HDAC9 = biological target: T3, Human HDAC9 (Homo sapiens, UniProt Q9UKV0); test: HDAC9 biochemical assay, class IIa-specific substrate; details: read-out: HDAC Isoform IC50 (nM) 9
T3 construct: amino acids 604-1066 with C-terminal His tag; His (C); host or cells: baculovirus expression system
T3 sequence (Q9UKV0 604-1066 isoform Q9UKV0-5): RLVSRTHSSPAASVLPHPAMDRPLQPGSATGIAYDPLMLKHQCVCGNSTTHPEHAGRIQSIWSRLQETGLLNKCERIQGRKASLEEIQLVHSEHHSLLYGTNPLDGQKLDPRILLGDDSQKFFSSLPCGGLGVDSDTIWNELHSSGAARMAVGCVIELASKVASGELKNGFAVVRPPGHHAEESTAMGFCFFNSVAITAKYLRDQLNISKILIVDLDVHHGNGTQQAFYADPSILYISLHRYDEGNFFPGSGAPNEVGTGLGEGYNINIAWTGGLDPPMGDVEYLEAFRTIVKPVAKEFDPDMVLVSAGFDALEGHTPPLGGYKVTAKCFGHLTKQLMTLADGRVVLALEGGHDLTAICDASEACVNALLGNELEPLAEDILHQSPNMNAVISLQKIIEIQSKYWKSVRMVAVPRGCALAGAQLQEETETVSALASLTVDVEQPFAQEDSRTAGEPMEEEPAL
Outline: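 HDAC9 residues 604-1066 (C-terminal His tag, baculovirus-expressed) at 0.06 ng/ul with 50 μM class IIa substrate Boc-Lys(trifluoroacetyl)-AMC in Tris-HCl pH 8.0 buffer with BSA and 1% DMSO. 30 min at room temperature, then developer added; fluorescence read at 360/460 nm Ex/Em.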

Human HDAC1 = biological target: T4, Human HDAC1 (Homo sapiens, UniProt Q13547); test: HDAC1 biochemical assay, AMC-labeled peptide substrate; details: read-out: HDAC Isoform IC50 (nM) 1
T4 construct: full length with C-terminal His-tag and C-terminal FLAG-tag; His (C); FLAG (C); host or cells: baculovirus expression system
T4 sequence (Q13547 whole entry, canonical isoform): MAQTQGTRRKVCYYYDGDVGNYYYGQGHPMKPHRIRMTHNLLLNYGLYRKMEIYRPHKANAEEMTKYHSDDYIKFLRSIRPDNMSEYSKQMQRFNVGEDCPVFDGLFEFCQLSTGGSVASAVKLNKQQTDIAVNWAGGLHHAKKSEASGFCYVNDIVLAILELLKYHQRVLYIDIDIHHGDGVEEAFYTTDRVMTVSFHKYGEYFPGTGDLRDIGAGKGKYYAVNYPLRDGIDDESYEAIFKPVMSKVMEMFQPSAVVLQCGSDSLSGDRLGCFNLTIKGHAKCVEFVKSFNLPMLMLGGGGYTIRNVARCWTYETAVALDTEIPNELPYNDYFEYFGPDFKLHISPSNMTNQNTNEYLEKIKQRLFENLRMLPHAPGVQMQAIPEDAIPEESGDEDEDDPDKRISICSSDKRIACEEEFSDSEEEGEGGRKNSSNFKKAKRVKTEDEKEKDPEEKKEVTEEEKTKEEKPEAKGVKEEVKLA
Outline: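 Two-step fluorogenic read: HDAC1 deacetylates 50 μM acetyl-lysine AMC peptide RHKK(Ac)AMC for 1 h at 30° C (pH 8.0, 1% DMSO, with compound), then developer digests the product for fluorescence at Ex/Em 360/460. Enzyme is full-length human, His/FLAG-tagged, insect-cell expressed, at 0.3 ng/ul.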

Human HDAC5 = biological target: T5, Human HDAC5 (Homo sapiens, UniProt Q9UQL6); test: HDAC5 biochemical assay, class IIa-specific substrate; details: read-out: HDAC Isoform IC50 (nM) 5
T5 construct: full length with C-terminal His tag, MW=51.1 kDa; His (C); host or cells: baculovirus expression system
T5 sequence (Q9UQL6 656-1122 limits assumed): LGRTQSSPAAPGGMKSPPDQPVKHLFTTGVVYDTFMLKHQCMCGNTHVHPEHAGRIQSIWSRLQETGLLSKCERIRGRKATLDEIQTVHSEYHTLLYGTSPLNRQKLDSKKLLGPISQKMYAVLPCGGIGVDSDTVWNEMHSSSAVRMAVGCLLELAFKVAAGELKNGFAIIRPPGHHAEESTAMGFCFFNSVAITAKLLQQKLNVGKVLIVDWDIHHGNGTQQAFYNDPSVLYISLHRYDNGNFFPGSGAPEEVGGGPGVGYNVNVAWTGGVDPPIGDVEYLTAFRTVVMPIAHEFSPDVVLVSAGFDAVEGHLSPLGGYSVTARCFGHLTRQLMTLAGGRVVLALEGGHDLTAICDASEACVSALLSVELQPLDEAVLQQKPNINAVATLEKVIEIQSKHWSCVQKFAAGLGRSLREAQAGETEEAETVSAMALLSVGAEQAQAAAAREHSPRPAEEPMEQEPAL
Outline: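 Two-step fluorogenic read-out: deacetylated trifluoroacetyl-lysine AMC substrate (50 μM) digested by developer, measured at Ex/Em 360/460. Deacetylation step: 0.05 ng/ul His-tagged full-length baculoviral enzyme with compound, 30 min, room temperature, pH 8.0 Tris with 1 mg/mL BSA and 1% DMSO.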

Recombinant human HDAC6 = biological target: T6, Recombinant human HDAC6 (Homo sapiens, UniProt Q9UBN7); test: HDAC6 biochemical assay, AMC-labeled peptide substrate; details: HDAC6; read-out: HDAC Isoform IC50 (nM) 6
T6 construct: full length, MW=159 kDa; GST (N); host or cells: Sf9 insect cells (baculovirus)
T6 sequence (Q9UBN7 1-1215): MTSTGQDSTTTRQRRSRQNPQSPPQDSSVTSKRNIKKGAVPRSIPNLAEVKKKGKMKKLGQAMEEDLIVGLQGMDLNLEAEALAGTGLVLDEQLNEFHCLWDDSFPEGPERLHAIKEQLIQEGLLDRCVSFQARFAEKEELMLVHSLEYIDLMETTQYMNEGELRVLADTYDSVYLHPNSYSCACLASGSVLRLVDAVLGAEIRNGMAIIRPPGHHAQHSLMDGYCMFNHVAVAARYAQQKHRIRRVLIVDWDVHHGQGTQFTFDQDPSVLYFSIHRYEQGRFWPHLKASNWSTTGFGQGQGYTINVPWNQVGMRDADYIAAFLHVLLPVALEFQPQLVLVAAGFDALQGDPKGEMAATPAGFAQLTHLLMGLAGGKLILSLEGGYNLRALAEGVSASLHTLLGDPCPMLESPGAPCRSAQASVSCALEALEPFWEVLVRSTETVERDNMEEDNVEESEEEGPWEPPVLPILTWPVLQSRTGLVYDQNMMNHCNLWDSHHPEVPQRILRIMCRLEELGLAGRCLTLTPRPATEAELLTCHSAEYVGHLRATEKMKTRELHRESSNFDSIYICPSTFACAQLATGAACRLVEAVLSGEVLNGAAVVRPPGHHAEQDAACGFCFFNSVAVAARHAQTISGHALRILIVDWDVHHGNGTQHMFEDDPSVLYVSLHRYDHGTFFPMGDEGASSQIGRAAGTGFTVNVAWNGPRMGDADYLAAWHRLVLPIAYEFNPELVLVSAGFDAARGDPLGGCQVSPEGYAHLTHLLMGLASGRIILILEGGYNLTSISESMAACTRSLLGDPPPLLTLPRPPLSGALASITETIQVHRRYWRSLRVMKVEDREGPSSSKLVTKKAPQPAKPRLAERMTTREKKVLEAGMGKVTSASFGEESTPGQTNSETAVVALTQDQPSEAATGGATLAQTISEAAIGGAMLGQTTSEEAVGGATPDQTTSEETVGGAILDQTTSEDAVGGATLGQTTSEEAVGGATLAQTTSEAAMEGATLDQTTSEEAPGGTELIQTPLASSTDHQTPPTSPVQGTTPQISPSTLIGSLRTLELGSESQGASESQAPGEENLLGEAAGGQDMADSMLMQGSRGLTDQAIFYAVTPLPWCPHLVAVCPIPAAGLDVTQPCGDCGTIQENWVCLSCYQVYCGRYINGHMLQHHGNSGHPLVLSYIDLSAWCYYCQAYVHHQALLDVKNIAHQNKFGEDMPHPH
Outline: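 Two-step fluorogenic read-out: enzyme deacetylates 50 μM RHKK(Ac)AMC for 1 h at 30° C in pH 8.0 Tris buffer with BSA and 1% DMSO, then developer cleavage gives signal at Ex 360/Em 460. Enzyme: 0.3 ng/ul recombinant full-length human HDAC6, GST-tagged, Sf9-expressed.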

T1 sequence (P56524 627-1084 limits assumed): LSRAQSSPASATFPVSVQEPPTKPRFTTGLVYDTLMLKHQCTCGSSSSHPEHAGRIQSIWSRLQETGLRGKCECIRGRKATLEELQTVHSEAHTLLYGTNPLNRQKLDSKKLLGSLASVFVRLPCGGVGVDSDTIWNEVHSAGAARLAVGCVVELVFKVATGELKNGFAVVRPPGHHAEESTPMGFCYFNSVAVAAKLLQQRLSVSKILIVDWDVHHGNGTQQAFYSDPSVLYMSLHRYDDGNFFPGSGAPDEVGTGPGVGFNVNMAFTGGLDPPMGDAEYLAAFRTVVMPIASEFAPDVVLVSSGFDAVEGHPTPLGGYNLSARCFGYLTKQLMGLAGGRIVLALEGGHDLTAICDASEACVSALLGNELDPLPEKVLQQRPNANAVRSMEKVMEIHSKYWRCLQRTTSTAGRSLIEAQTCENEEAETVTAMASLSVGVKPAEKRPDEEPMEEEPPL

## FC(F)(F)c1cnnc(N(Cc2ccc(-c3noc(C(F)(F)F)n3)s2)c2ncccc2N2CCOCC2)c1 [Example EH, N-[3-(Morpholin-4-yl)pyridin-2-yl]-5-(trifluoromethyl)-N-({5-[5-(trifluoromethyl)-1,2,4-oxadiazol-3-yl]thiophen-2-yl}methyl)pyridazin-3-amine]
Human HDAC4
  IC50: ≤ 10000 nM
Human HDAC7
  IC50: ≤ 10000 nM
Human HDAC9
  IC50: > 10000 nM
Human HDAC1
  IC50: > 10000 nM
Human HDAC5
  IC50: ≤ 10000 nM
Recombinant human HDAC6
  IC50: ≤ 10000 nM

## FC(F)(F)c1nc(-c2ccc(CN(c3cnccn3)c3cc(C4CC4)ccn3)s2)no1 [Example AH, N-(4-Cyclopropylpyridin-2-yl)-N-({5-[5-(trifluoromethyl)-1,2,4-oxadiazol-3-yl]thiophen-2-yl}methyl)pyrazin-2-amine]
Human HDAC4
  IC50: > 10000 nM
Human HDAC7
  IC50: > 10000 nM
Human HDAC9
  IC50: > 10000 nM
Human HDAC1
  IC50: > 10000 nM
Human HDAC5
  IC50: ≤ 10000 nM
Recombinant human HDAC6
  IC50: ≤ 10000 nM

## FC(F)(F)c1cnnc(N(Cc2ccc(-c3noc(C(F)(F)F)n3)s2)c2ccc(N3CCOCC3)nn2)c1 [Example EX, 6-(Morpholin-4-yl)-N-({5-[5-(trifluoromethyl)-1,2,4-oxadiazol-3-yl]thiophen-2-yl}methyl)-N-[5-(trifluoromethyl)pyridazin-3-yl]pyridazin-3-amine]
Human HDAC4
  IC50: ≤ 10000 nM
Human HDAC7
  IC50: ≤ 10000 nM
Human HDAC9
  IC50: ≤ 10000 nM
Human HDAC1
  IC50: ≤ 10000 nM
Human HDAC5
  IC50: ≤ 10000 nM
Recombinant human HDAC6
  IC50: ≤ 1000 nM

## CN1CCN(c2ccc(N(Cc3ccc(-c4noc(C(F)(F)F)n4)s3)c3cnccn3)nn2)CC1 [Example DK, 6-(4-Methylpiperazin-1-yl)-N-(pyrazin-2-yl)-N-({5-[5-(trifluoromethyl)-1,2,4-oxadiazol-3-yl]thiophen-2-yl}methyl)pyridazin-3-amine]
Human HDAC4
  IC50: ≤ 500 nM
Human HDAC7
  IC50: ≤ 500 nM
Human HDAC9
  IC50: ≤ 10000 nM
Human HDAC1
  IC50: ≤ 10000 nM
Human HDAC5
  IC50: ≤ 500 nM
Recombinant human HDAC6
  IC50: ≤ 500 nM

## FC(F)(F)c1nc(-c2ccc(CN(c3ccc(N4CCOCC4)cn3)c3cnccn3)s2)no1 [Example AD, N-[5-(Morpholin-4-yl)pyridin-2-yl]-N-({5-[5-(trifluoromethyl)-1,2,4-oxadiazol-3-yl]thiophen-2-yl}methyl)pyrazin-2-amine]
Human HDAC4
  IC50: ≤ 10000 nM
Human HDAC7
  IC50: ≤ 10000 nM
Human HDAC9
  IC50: ≤ 10000 nM
Human HDAC1
  IC50: ≤ 10000 nM
Human HDAC5
  IC50: ≤ 10000 nM
Recombinant human HDAC6
  IC50: ≤ 10000 nM

## O=C(O)c1ccc(N(Cc2ccc(-c3noc(C(F)(F)F)n3)s2)c2cnccn2)nn1 [Example DP, 6-[(Pyrazin-2-yl)({5-[5-(trifluoromethyl)-1,2,4-oxadiazol-3-yl]thiophen-2-yl}methyl)amino]pyridazine-3-carboxylic acid]
Human HDAC4
  IC50: ≤ 10000 nM
Human HDAC7
  IC50: ≤ 10000 nM
Human HDAC9
  IC50: ≤ 10000 nM
Human HDAC1
  IC50: > 10000 nM
Human HDAC5
  IC50: ≤ 10000 nM
Recombinant human HDAC6
  IC50: ≤ 1000 nM

## FC(F)(F)c1nccc(N(Cc2ccc(-c3noc(C(F)(F)F)n3)s2)c2cnccn2)n1 [Example CD, N-(Pyrazin-2-yl)-2-(trifluoromethyl)-N-({5-[5-(trifluoromethyl)-1,2,4-oxadiazol-3-yl]thiophen-2-yl}methyl)pyrimidin-4-amine]
Human HDAC4
  IC50: ≤ 1000 nM
Human HDAC7
  IC50: ≤ 1000 nM
Human HDAC9
  IC50: ≤ 1000 nM
Human HDAC1
  IC50: > 10000 nM
Human HDAC5
  IC50: ≤ 1000 nM
Recombinant human HDAC6
  IC50: ≤ 10000 nM

## FC(F)(F)c1nc(-c2ccc(CN(c3cnccn3)c3cscn3)s2)no1 [Example T, N-(1,3-Thiazol-4-yl)-N-({5-[5-(trifluoromethyl)-1,2,4-oxadiazol-3-yl]thiophen-2-yl}methyl)pyrazin-2-amine]
Human HDAC4
  IC50: ≤ 1000 nM
Human HDAC7
  IC50: ≤ 10000 nM
Human HDAC9
  IC50: ≤ 10000 nM
Human HDAC1
  IC50: ≤ 10000 nM
Human HDAC5
  IC50: ≤ 1000 nM
Recombinant human HDAC6
  IC50: ≤ 10000 nM

## FC(F)(F)c1nc(-c2ccc(CN(c3cnccn3)c3nccc4ncccc34)s2)no1 [Example AJ, N-(Pyrazin-2-yl)-N-({5-[5-(trifluoromethyl)-1,2,4-oxadiazol-3-yl]thiophen-2-yl}methyl)-1,6-naphthyridin-5-amine]
Human HDAC4
  IC50: ≤ 10000 nM
Human HDAC7
  IC50: ≤ 10000 nM
Human HDAC9
  IC50: ≤ 10000 nM
Human HDAC1
  IC50: > 10000 nM
Human HDAC5
  IC50: ≤ 10000 nM
Recombinant human HDAC6
  IC50: ≤ 10000 nM

## FC(F)(F)c1nc(-c2ccc(CN(c3cnc(C4CC4)nc3)c3cnccn3)s2)no1 [Example CU, 2-Cyclopropyl-N-(pyrazin-2-yl)-N-({5-[5-(trifluoromethyl)-1,2,4-oxadiazol-3-yl]thiophen-2-yl}methyl)pyrimidin-5-amine]
Human HDAC4
  IC50: ≤ 500 nM
Human HDAC7
  IC50: ≤ 1000 nM
Human HDAC9
  IC50: ≤ 10000 nM
Human HDAC1
  IC50: > 10000 nM
Human HDAC5
  IC50: ≤ 1000 nM
Recombinant human HDAC6
  IC50: ≤ 10000 nM

## CS(=O)(=O)c1cnc(N(Cc2ccc(-c3noc(C(F)(F)F)n3)s2)c2cnccn2)cn1 [Example BL, 5-Methanesulfonyl-N-(pyrazin-2-yl)-N-({5-[5-(trifluoromethyl)-1,2,4-oxadiazol-3-yl]thiophen-2-yl}methyl)pyrazin-2-amine]
Human HDAC4
  IC50: ≤ 1000 nM
Human HDAC7
  IC50: ≤ 1000 nM
Human HDAC9
  IC50: ≤ 10000 nM
Human HDAC1
  IC50: > 10000 nM
Human HDAC5
  IC50: ≤ 1000 nM
Recombinant human HDAC6
  IC50: ≤ 10000 nM

## Cc1cnc(N(Cc2ccc(-c3noc(C(F)(F)F)n3)s2)c2cnccn2)c(C)n1 [Example BV, 3,5-Dimethyl-N-(pyrazin-2-yl)-N-({5-[5-(trifluoromethyl)-1,2,4-oxadiazol-3-yl]thiophen-2-yl}methyl)pyrazin-2-amine]
Human HDAC4
  IC50: ≤ 500 nM
Human HDAC7
  IC50: ≤ 1000 nM
Human HDAC9
  IC50: ≤ 1000 nM
Human HDAC1
  IC50: > 10000 nM
Human HDAC5
  IC50: ≤ 500 nM
Recombinant human HDAC6
  IC50: ≤ 10000 nM
